Measurements published in patent publication US20240228500A1, “THERAPEUTIC CONJUGATES” (TOTUS MEDICINES INC., priority 2021, published 2024).

Each molecule was assayed on NanoLuc fused to the biological target (assay: NanoBRET binding assay of ARCS in transfected HEK293 cells with washout). Details: HEK293 cells transiently transfected with NanoLuc fusion DNA, compound incubated overnight, cells washed 5x in PBS, tracer added.
Parameters: species or system human
Description: Human embryonic kidney 293-H (HEK 293, Gibco 293-H, #11631017) cell lines were maintained in Dulbecco's Modified Eagle Medium, high glucose, pyruvate (DMEM, Gibco, #11995065) supplemented with 10% fetal bovine serum (FBS, Gibco, #10082147) and 1× penicillin-streptomycin (100× solution, Gibco, #15140148) at 37° C. and 5% CO2 in a water-saturated incubator. Cells were trypsinized using 0.05% or 0.25% Trypsin-EDTA solution (Trypsin-EDTA, phenol red, Gibco, #25200056 (0.25%) or #25300054). Opti-MEM media supplemented with 10% fetal bovine serum (Opti-MEM I reduced serum media, no phenol red, Gibco, #11058021) was used for culturing cells overnight for NanoBRET readout experiments.
HEK293 cells were then cultivated appropriately prior to assay. The medium from cell flask was removed via aspiration, washed 1× with PBS followed by aspiration, trypsinized, and cells were allowed to dissociate from the flask. Trypsin is neutralized using growth medium and cells were pelleted via centrifugation at 200×g for 5 minutes. The medium was aspirated and the cells were resuspended into a single cell suspension using Opti-MEM I supplemented with 10% FBS. The cell density was adjusted to 2×10^5/mL in Opti-MEM I supplemented with 10% FBS in a sterile, conical tube. The cells were transfected and aliquoted directly in a 96-well plate for the NanoBRET assay the next day, and therefore, the cells were cultured overnight in Opti-MEM. The cells were also transfected in bulk and dispensed into a 96-well plate to allow cells to adhere to the plate overnight, thereby enabling washout studies.
The lipid:DNA complexes were then prepared as follows: A 10 μg/mL solution of DNA was prepared in Opti-MEM without serum. This solution contains the following ratios of carrier DNA and DNA encoding NanoLuc fused to the biological target. Serial dilution steps may be warranted to accurately dilute the NanoLuc fusion DNA. Added, in order, were the following reagents to a sterile polystyrene test tube: 1 mL of Opti-MEM without phenol red; 9.0 μg/mL of carrier DNA; 1.0 μg/mL of NanoLuc fusion DNA (for some targets, the amount is less). The reagents were mixed thoroughly.
[…] was added into each mL of DNA mixture to form lipid:DNA complex. […] It was mixed by pipetting up and down 5-10 times and incubated at room temperature for 20 minutes to allow complexes to form. 1 part (e.g. 1 mL) of lipid:DNA complex was mixed with 20 parts (e.g. 20 mL) of HEK293 cells in suspension at 2×10^5/mL and mixed gently by pipetting up and down 5 times in a sterile, conical tube. Larger or smaller bulk transfections were scaled accordingly, using this ratio. 100 μL cells+lipid:DNA complex was dispensed into a sterile, tissue-culture treated 96-well plate (20,000 cells/well), and incubated at least 16 hours to allow expression. The cells were incubated in a 37° C.+5% CO2 incubator for >16 hrs. A serially diluted inhibitor (i.e. ARCS) or test compound was prepared at 100× final concentration in 100% DMSO. The serially diluted inhibitor stock was prepared in PCR plates. 1 μL per well of 100× serially diluted inhibitor/test compound was added to the cells in 96-well plates that have been transiently transfected overnight and mixed by tapping the plate by hand. The plate was incubated at 37° C.+5% CO2 incubator overnight. A 1× solution of substrate mix (500× stock) and appropriate concentration of tracer was prepared in Opti-Mem. The cells were washed by setting a plate washer to the 96 well plate 5× in PBS pH 7.4 by adding 200 μL PBS each time. The cells were then incubated at 37° C. for 2 hours. 100 μL of the 1× Substrate-Tracer solution was added and the 96 well plate was gently tapped to mix. The plate on plate reader is read every hour for the next 6 hours.

Compound	Binding (Percent inhibition)
C=C(C)C(=O)NCC(=O)N1CCN(Cc2cc3c(N4CCOCC4)nc(-c4cnc(NC(=O)OC)cc4C(F)(F)F)nn3c2)CC1 [Compound 1-201]	++++ (++++ >80%)
COC(=O)Nc1cc(C(F)(F)F)c(-c2nc(N3CCOCC3)c3cc(CN4CCN(C(=O)CNC(=O)/C=C/CN5CCOCC5)CC4)cn3n2)cn1 [Compound 1-202]	++++ (++++ >80%)
COC(=O)Nc1cc(C(F)(F)F)c(-c2nc(N3CCOCC3)c3cc(CN4CCN(C(=O)CNC(=O)/C=C/CN5CCN(C)CC5)CC4)cn3n2)cn1 [Compound 1-203]	++ (++ 20-50%)
COC(=O)Nc1cc(C(F)(F)F)c(-c2nc(N3CCOCC3)c3cc(CN4CCN(C(=O)CNC(=O)/C=C/CN5CC(F)(F)C5)CC4)cn3n2)cn1 [Compound 1-204]	++++ (++++ >80%)
COC(=O)Nc1cc(C(F)(F)F)c(-c2nc(N3CCOCC3)c3cc(CN4CCN(C(=O)CNC(=O)/C=C/CF)CC4)cn3n2)cn1 [Compound 1-206]	+ (+ <20%)
C=C(F)C(=O)NCC(=O)N1CCN(Cc2cc3c(N4CCOCC4)nc(-c4cnc(NC(=O)OC)cc4C(F)(F)F)nn3c2)CC1 [Compound 1-212]	++++ (++++ >80%)
COC(=O)Nc1cc(C(F)(F)F)c(-c2nc(N3CCOCC3)c3cc(CN4CCN(C(=O)CNC(=O)/C=C/CN5CC6(COC6)C5)CC4)cn3n2)cn1 [Compound 1-213]	+ (+ <20%)
COC(=O)Nc1cc(C(F)(F)F)c(-c2nc(N3CCOCC3)c3cc(CN4CCN(C(=O)CNC(C)=O)CC4)cn3n2)cn1 [Compound 1-214]	++++ (++++ >80%)
C#CCCC(=O)Nc1ccc(-c2nc(N3CCOCC3)c3cc(CN4CCN(C(=O)CNC(=O)C=C)CC4)cn3n2)cc1 [Compound 1-215]	+ (+ <20%)
COC(=O)Nc1cc(C(F)(F)F)c(-c2nc(N3CCOCC3)c3cc(CN4CCN(C(=O)CNC(=O)/C=C/CN5CCCCC5)CC4)cn3n2)cn1 [Compound 1-217]	++ (++ 20-50%)
C=CC(=O)NCC(=O)N1CC2(CN(Cc3cc4c(N5CCOCC5)nc(-c5cnc(NC(=O)OC)cc5C(F)(F)F)nn4c3)C2)C1 [Compound 1-223]	++ (++ 20-50%)
C=CC(=O)N1CCC(C(=O)N2CCN(Cc3cc4c(N5CCOCC5)nc(-c5cnc(NC(=O)OC)cc5C(F)(F)F)nn4c3)CC2)CC1 [Compound 1-304]	++++ (++++ >80%)
C=CC(=O)Nc1cccc(C(=O)N2CCN(Cc3cc4c(N5CCOCC5)nc(-c5cnc(NC(=O)OC)cc5C(F)(F)F)nn4c3)CC2)c1 [Compound 1-306]	++ (++ 20-50%)
C=CC(=O)N1CCC[C@@H]1C(=O)N1CCN(Cc2cc3c(N4CCOCC4)nc(-c4cnc(NC(=O)OC)cc4C(F)(F)F)nn3c2)CC1 [Compound 1-308]	++++ (++++ >80%)
C=CC(=O)N1CCC[C@H]1C(=O)N1CCN(Cc2cc3c(N4CCOCC4)nc(-c4cnc(NC(=O)OC)cc4C(F)(F)F)nn3c2)CC1 [Compound 1-309]	++++ (++++ >80%)
C=CC(=O)N(C)c1cccc(C(=O)N2CCN(Cc3cc4c(N5CCOCC5)nc(-c5cnc(NC(=O)OC)cc5C(F)(F)F)nn4c3)CC2)c1 [Compound 1-312]	++ (++ 20-50%)
C=CC(=O)N[C@H](C)C(=O)N1CCN(Cc2cc3c(N4CCOCC4)nc(-c4cnc(NC(=O)OC)cc4C(F)(F)F)nn3c2)CC1 [Compound 1-313]	++++ (++++ >80%)
C=C(OC)C(=O)NCC(=O)N1CCN(Cc2cc3c(N4CCOCC4)nc(-c4cnc(NC(=O)OC)cc4C(F)(F)F)nn3c2)CC1 [Compound 1-314]	++++ (++++ >80%)
C=CC(=O)N[C@@H](C)C(=O)N1CCN(Cc2cc3c(N4CCOCC4)nc(-c4cnc(NC(=O)OC)cc4C(F)(F)F)nn3c2)CC1 [Compound 1-315]	++++ (++++ >80%)
